Experimental data as given in patent US20260217683A1, “PYRIDAZINONE HETEROCYCLIC COMPOUND MYOSIN II INHIBITOR AND USE THEREOF” (Xizang Haisco Pharmaceutical Co., Ltd., priority 2023, published 2026).

Experiments:
[1] = Pharmacokinetic experiment in mice; assay type: in vivo; conditions: male, C57, po; mouse plasma, i.g. (10 mg/kg)
Protocol: (§1) 1. Experimental animals: Male C57 mice, 22-25 g, 6 mice/compound. Purchased from Chengdu Ddossy Experimental Animals Co., Ltd.
(§2) 2. Experimental design: On the day of the experiment, 12 C57 mice were randomly grouped according to their body weight. The animals were fasted with water available for 12 to 14 h one day before the administration and were fed 4 h after the administration.
Before and after the administration, 0.06 mL of blood was taken from the orbit of the animals under isoflurane anesthesia and placed in an EDTAK2 centrifuge tube. The blood was centrifuged at 5000 rpm and 4° C. for 10 min to collect the plasma. The blood collection time points for the intravenous group and intragastric administration group were: 0 m, 5 m, 15 min, 30 min, 1 h, 2 h, 4 h, 7 h and 24 h. Before analysis and detection, all samples were stored at −80° C., and a quantitative analysis of samples was performed using LC-MS/MS.

[2] = Pharmacokinetic experiment in mouse muscle tissue (tibialis anterior / plasma); assay type: in vivo, C57 mice; conditions: male, C57, tibialis anterior muscle / plasma, oral, intragastric 10 mg/kg, read-out: Ratio = Tibialis anterior Conc./Plasma Conc.
Protocol: as §1
as §2, with “experiment,” for “experiment, 12”, “administration. Administration was performed as per Table 10.1.” for “administration.”

[3] = target: T1, cardiac myosin SII (Bos taurus, UniProt Q9BE39); experiment: Inhibition of hydrolysis of ATP by cardiac myosin SII; assay type: biochemical; conditions: 100 μM compound
T1 construct: purchased Cytoskeleton #MYO3-A
In short: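 Bovine cardiac myosin with preformed F-actin in 15 mM Tris-HCl pH 7.5, 10 mM KCl, 2 mM MgCl2, 0.1 mM EGTA; compounds at 100 μM final, ATP from 3 mM working solution, 2 h at 37 °C. Released Pi measured colorimetrically at 650 nm against a Pi standard curve; % inhibition vs. DMSO control.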

[4] = test system: B10-Dmd-KO (Mdx) mice; experiment: PK/PD detection of mouse model with Dmd (Mdx) gene mutation, plasma CK; assay type: in vivo; conditions: oral
From the text: Experimental objective: Bl0-Dmd-KO (Mdx) mice are DMD function-deficient mice caused by frameshift mutations in the Dmd gene. […] This study has investigated the effects on CK and TNNI2 in the plasma of Mdx mice upon administration of compounds.
Experimental animal: B10-Dmd-KO (C57BL/10ScSnJGpt-Dmdem3Cd4/Gpt), male, 5-7 weeks old, weight 28-30 g, supplier. Gempharmatech Co., Ltd.;
• 1) Running training (D-5): Mdx mice underwent running training in batches. The training parameters were set as three time periods, i.e., the initial speed of 4 m/min for 2 min, then 8 m/min for 8 min, and finally 12 m/min for 30 min, a total of 40 min; • 2) Gripping strength test (D-2): each round was measured three times, and three rounds were performed; • 3) Grouping (DO): the animals were anesthetized by inhalation of isoflurane (concentration: 5%, gas flow rate: 1 L/min), and then a capillary tube was used to collect blood (about 150 μL) via orbital venous sinus into a 0.6 mL centrifuge tube containing EDTA anticoagulant, the plasma wad separated, and the CK value was detected, which was used as the basic value for grouping; • 4) Administration, grasping, and blood collection (D1): The compounds were dissolved in the vehicle 5% DMA+5% HS-15+90% Saline, then orally administered to the mice, and then the grip strength test was conducted (three tests per round for three rounds). […] A capillary tube was used to collect blood (>300 μL) via orbital venous sinus into a 0.6 mL centrifuge tube containing EDTA anticoagulant, and then the animals were euthanized to collect the tibialis anterior muscle (left leg), soleus muscle (both legs) and cardiac muscle, which were weighed and recorded, placed in a homogenization tube and quickly frozen in liquid nitrogen, then stored at −80° C.
Sample processing: After the whole blood anticoagulated with EDTA was centrifuged at 3000 rpm and 4° C. for 10 min, the […] was collected and subpackaged. The separated […] was subjected to a biochemical analyzer (Fully automatic biochemical analyzer Roche C311) to detect the CK value and TNN12 value (Mouse TNNI2 Elisa Kit, ABBEXA, E2207370Y); The […] concentration of the compound and the drug concentration in tibialis anterior muscle, soleus muscle and cardiac muscle were measured by LC/MS instrument.

[5] = 10 mpk, QD administration for 7 days

T1 sequence (Q9BE39 whole entry): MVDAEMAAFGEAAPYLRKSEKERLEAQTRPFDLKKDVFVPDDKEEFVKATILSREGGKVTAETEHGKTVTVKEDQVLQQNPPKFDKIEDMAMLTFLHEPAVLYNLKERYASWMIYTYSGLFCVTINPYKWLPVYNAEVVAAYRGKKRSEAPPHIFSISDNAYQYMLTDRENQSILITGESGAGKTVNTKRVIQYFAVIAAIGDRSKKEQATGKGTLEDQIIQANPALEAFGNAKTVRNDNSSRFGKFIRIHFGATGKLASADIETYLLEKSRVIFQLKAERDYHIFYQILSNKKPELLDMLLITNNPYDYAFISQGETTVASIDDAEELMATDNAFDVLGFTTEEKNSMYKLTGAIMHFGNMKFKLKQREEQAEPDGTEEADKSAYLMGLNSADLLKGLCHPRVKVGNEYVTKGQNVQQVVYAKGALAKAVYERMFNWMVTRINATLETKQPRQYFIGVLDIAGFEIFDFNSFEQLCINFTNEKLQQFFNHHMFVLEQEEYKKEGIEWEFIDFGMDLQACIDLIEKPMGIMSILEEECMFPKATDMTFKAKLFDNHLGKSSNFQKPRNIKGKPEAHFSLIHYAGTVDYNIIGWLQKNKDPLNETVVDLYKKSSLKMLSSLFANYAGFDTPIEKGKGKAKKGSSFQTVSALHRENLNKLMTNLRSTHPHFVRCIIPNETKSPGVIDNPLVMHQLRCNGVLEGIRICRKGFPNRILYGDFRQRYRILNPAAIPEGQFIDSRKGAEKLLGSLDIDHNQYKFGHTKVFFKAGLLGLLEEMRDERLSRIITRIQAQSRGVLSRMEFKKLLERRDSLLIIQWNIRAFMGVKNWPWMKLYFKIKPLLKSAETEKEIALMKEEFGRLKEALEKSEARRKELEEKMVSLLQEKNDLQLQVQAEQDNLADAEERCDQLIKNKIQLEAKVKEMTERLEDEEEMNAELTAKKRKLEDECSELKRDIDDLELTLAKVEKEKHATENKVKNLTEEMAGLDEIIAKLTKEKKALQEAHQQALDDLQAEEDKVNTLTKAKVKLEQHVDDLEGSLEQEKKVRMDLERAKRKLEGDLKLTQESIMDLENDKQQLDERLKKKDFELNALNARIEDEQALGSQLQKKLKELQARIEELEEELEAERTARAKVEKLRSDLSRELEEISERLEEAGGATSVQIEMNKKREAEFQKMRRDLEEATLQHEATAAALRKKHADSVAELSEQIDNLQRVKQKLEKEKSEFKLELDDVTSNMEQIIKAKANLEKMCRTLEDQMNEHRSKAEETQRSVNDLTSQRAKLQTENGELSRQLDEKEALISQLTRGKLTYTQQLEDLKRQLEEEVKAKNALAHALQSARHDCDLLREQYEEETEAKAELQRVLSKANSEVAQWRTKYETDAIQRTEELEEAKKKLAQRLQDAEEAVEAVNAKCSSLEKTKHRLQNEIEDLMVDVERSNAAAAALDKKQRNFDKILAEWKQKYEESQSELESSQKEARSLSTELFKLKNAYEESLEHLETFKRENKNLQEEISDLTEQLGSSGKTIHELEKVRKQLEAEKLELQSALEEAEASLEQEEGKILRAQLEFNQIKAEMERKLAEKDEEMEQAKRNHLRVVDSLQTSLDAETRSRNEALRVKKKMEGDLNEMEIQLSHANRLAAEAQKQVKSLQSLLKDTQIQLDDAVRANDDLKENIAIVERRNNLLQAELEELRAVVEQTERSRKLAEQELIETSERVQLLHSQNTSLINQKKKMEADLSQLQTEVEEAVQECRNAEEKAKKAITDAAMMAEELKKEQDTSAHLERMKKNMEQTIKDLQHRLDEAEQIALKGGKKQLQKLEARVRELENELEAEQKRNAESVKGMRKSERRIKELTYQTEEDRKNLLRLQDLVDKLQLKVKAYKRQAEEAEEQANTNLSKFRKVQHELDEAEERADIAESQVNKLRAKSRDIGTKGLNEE
T1 sequence (P85100 whole entry partner): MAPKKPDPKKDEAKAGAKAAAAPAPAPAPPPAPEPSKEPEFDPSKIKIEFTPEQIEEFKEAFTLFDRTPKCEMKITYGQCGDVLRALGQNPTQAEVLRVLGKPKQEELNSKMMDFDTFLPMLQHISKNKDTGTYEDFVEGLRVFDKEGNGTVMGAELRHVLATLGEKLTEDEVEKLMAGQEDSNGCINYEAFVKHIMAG
T1 sequence (Q3SZE5 whole entry partner): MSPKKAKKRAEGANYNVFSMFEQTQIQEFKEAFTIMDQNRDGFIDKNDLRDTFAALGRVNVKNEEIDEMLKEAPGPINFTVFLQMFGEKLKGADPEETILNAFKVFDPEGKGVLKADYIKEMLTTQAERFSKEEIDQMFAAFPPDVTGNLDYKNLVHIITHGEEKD

Row | half-life [1] | Kp at 6 h [2] | Kp at 24 h [2] | inhibition at 100 µM [3] | Compound | other results
1 | 52.3 h | 113 | 171 | 10% | O=C1CCc2ccc(Cn3nc(-c4cnc(O[C@@H]5CCOC5)nc4)ccc3=O)cc21 [Compound 149] | 
2 |  |  |  | 10% | N#CC1(COc2ncc(-c3ccc(=O)n(Cc4ccc5c(c4)C(=O)CC5)n3)cn2)CC1 [Compound 158] | 
3 |  | 89.9 | 116 | 14% | O=C1CCc2ccc(Cn3nc(-c4cnc(OC5CC(F)(F)C5)nc4)ccc3=O)cc21 [Compound 141] | 
4 | 102 h | 63.5 | 81.1 |  | O=C1CCc2ccc(Cn3nc(-c4cnc(OCC(F)(F)F)nc4)ccc3=O)cc21 [Compound 88] | AUC(0-t) [1]: 2320 ng·h/mL; Cmax [1]: 324 ng/mL; Inhibition rate of CK values (sampled 24 h after (last) dose) [4, 5]: 91.6%
5 | 91.1 h | 136 | 158 |  | O=C1CCc2ccc(Cn3nc(-c4cnc(OCC(F)F)nc4)ccc3=O)cc21 [Compound 131] | Inhibition rate of CK values (sampled 24 h after (last) dose) [4, 5]: 94.1%

Further lines, the compound ahead of its results:

Row | Compound | half-life [1] | Kp at 6 h [2] | Kp at 24 h [2] | inhibition at 100 µM [3] | other results
6 | O=c1ccc(-c2cnc(OCC(F)(F)F)nc2)nn1Cc1ccc2c(c1)CCC2 [Compound 57] |  |  |  | 1.5% | Inhibition rate of CK values (sampled 24 h after (last) dose) ([4]; 10 mpk single administration): 108.2%
7 | O=C1CCc2ccc(Cn3nc(-c4cnc(OC5COCC5(F)F)nc4)ccc3=O)cc21 (stereo not drawn) [Compound 164] |  |  |  | 4% | 
8 | O=C1CCc2c(F)cc(Cn3nc(-c4cnc(OCC(F)F)nc4)ccc3=O)cc21 [Compound 167] |  |  |  | 4% | 
9 | O=C1CCc2ccc(Cn3nc(-c4cnc(O[C@H]5CCOC5)nc4)ccc3=O)cc21 [Compound 150] | 40.7 h | 82.2 | 140 | 15% | 
10 | O=C1CCc2ccc(Cn3nc(-c4cnc(Oc5cncc(Cl)c5)nc4)ccc3=O)cc21 [Compound 151] |  |  |  | -2% | 
